The text below walks through data of the NIST ThermoML archive (doi:10.1021/je034227w).

For the data set the following is noted: Liquid; for mass density: 298.15 K, 101.33 kPa.

± gives the expanded uncertainty stated by the source.

In the case of `CCO` [ethanol], the mass density – broadly, mass per unit of volume – amounted to 785.1 ± 5 kg/m3 and the Normal boiling temperature was found to be 78.31 ± 0.03 °C.
In the same order, the values of `CO` [methanol] are 786.5 ± 5 kg/m3 and 64.52 ± 0.03 °C.
